Test system: db/db mice
Test: Oral postprandial glycemia in db/db mice (experimental model of type II diabetes)
Type: in vivo
Conditions: 100 mg/kg p.o., db/db mice fasted 20 h then fed, compared to vehicle group; for decrease in blood glucose level: 4 hrs after administration; for decrease in insulin level: serum insulin (ELISA) 4 hrs after administration
Experimental: In Vivo Assay: Experimental Model of Type II Diabetes (Oral Postprandial Glycemia in db/db Mice)
The following assay aims at determining the anti-diabetic effect of the test compounds of formula (I) in a model of postprandial glycemia in db/db mice, in vivo.
The assay was performed as follows:
A total of 18 db/db mice (about 8-9 weeks; obtained from IFFACREDO, l'Arbreste, France) were fasted during 20 hours.
3 groups, each consisting of 6 animals were formed: • Group 1: The animals were administered (per os) a dose of […] of vehicle. • Group 2: The animals were administered (per os) a dose of 50 mg/kg of the test compound according to formula (I). • Group 3: The animals were administered (per os) a dose of 100 mg/kg of the test compound according to formula (I).
After oral administration of the compounds of formula (I) solubilized or suspended in CarboxyMethylCellulose (0.5%), Tween 20 (0.25%) and water as vehicle, the animals had access to commercial food (D04, UAR, Villemoisson/Orge, France) ad libitum. The diabetic state of the mice was verified by determining the blood glucose level before drug administration. Blood glucose and serum insulin levels were then determined 4 hrs after drug administration.
The determination of the blood glucose level was performed using a glucometer (Precision Q.I.D., Medisense, Abbot, ref. 212.62.31).
The determination of the Insulin level was performed using an ELISA kit (Crystal CHEM, Ref. INSK R020).
Changes in blood glucose and serum insulin of drug treated mice were expressed as a percentage of control (group 1: vehicle treated mice).

| Compound | decrease in blood glucose level | decrease in insulin level |
| --- | --- | --- |
| N#CC(c1ccnc(NCCc2cccnc2)n1)c1nc2ccccc2s1 (stereo not shown) [1,3-benzothiazol-2-yl(2-{[2-(3-pyridinyl)ethyl]amino}-4-pyrimidinyl)acetonitrile] | 38% | 64% |
| N#CC(c1ccnc(OCc2ccc(CN3CCOCC3)cc2)n1)c1nc2ccccc2s1 (stereo not shown) [1,3-benzothiazol-2-yl(2-{[4-(morpholin-4-ylmethyl)benzyl]oxy}-pyrimidin-4-yl)acetonitrile] | 22% | 36% |
